Test results from patent US11299487B2, “Compounds and compositions as modulators of TLR signaling” (Neuropore Therapies, Inc., priority 2019, dated 2022).
Each block holds one compound with its values, some of them ahead of it.

Tests used:
Assay type in all cases: cell-based
[1] = biological target: T1, human TLR2 (Homo sapiens, UniProt O60603); assay: HEK-Blue hTLR2 antagonism assay (SEAP reporter) with agonist Pam2CSK4 (TLR2/6 agonist); settings: HEK-Blue hTLR2 cells, ~3×EC50 Pam2CSK4, 18 h, SEAP OD 655 nm, 8-point dilutions
T1 construct: host or cells: HEK-Blue hTLR2 (HEK-293)
T1 sequence (O60603 21-784): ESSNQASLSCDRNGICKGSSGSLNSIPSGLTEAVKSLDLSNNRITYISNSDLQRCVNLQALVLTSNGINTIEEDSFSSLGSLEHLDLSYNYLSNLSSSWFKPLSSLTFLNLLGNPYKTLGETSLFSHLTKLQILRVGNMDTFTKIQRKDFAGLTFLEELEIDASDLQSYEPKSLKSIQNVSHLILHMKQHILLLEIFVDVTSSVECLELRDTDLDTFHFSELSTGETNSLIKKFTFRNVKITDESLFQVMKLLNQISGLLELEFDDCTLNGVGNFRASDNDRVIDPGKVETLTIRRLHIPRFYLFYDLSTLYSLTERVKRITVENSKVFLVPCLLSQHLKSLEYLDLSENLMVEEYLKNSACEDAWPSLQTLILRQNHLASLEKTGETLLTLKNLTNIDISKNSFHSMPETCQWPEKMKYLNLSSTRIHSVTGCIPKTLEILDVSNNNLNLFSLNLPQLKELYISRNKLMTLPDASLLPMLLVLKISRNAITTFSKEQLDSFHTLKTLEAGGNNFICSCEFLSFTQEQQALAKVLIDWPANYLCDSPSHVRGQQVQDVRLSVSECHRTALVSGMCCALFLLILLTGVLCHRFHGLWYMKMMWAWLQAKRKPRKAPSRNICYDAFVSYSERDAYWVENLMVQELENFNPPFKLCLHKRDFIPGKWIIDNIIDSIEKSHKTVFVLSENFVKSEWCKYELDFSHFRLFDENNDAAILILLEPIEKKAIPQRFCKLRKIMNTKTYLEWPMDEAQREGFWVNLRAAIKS

[2] = biological target: T1, human TLR2; assay: HEK-Blue hTLR2 antagonism assay (SEAP reporter) with agonist Pam3CSK4 (TLR1/2 agonist); settings: HEK-Blue hTLR2 cells, ~3×EC50 Pam3CSK4, 18 h, SEAP OD 655 nm, 8-point dilutions
[3] = biological target: T2, human TLR9 (Homo sapiens, UniProt Q9NR96); assay: HEK-Blue hTLR9 assay (SEAP reporter) with agonist ODN 2006; settings: Table A; HEK-Blue hTLR9 cells, ~3×EC50 ODN 2006, 18 h; exact values 8-point dilutions, approximate (~ or <) 4-point dilutions; read-out: ~IC50 (μM) with ODN2006
T2 construct: host or cells: HEK-Blue hTLR9 (HEK-293)
T2 sequence (Q9NR96 26-1032): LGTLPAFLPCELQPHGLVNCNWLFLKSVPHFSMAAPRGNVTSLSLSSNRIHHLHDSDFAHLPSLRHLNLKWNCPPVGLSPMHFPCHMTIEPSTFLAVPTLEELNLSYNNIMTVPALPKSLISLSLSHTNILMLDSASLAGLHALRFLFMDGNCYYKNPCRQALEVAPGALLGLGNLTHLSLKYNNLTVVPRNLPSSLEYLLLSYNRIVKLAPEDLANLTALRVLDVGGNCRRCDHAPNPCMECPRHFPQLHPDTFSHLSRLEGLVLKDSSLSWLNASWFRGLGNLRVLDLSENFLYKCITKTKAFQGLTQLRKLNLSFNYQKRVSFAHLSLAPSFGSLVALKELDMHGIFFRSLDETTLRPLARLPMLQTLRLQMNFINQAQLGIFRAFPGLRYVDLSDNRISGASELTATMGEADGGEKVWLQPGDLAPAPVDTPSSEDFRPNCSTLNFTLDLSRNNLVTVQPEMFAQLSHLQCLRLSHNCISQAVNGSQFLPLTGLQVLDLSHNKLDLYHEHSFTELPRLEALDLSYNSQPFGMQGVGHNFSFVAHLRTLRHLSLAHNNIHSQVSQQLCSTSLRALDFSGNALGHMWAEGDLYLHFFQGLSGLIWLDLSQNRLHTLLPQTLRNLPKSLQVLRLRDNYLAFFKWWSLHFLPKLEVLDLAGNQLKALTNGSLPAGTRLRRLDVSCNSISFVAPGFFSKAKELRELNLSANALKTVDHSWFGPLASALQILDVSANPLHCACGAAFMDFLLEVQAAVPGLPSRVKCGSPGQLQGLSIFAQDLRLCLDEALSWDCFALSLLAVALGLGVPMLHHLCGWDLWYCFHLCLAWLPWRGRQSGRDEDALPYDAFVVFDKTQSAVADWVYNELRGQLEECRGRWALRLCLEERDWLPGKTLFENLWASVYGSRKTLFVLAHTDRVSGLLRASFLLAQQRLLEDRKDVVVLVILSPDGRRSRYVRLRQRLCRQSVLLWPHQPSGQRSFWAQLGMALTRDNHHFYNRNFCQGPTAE
Method: Synthetic ODNs (ODN 2006 (ODN7909), class B CpG oligonucleotide, TLR9 agonist) was obtained from InvivoGen and was dissolved in endotoxin-free water to a concentration 500 μM, vortexed until complete solubilization, and stored in aliquots at −20° C. Prior to addition to cells, an aliquot of the dissolved ligand was vortexed shortly and then was diluted in medium to 50 μM. The EC50 of the agonist for each assay run was determined by using 3-fold dilutions from the starting concentration 10 μM.
Test compounds were solubilized fresh to 10-20 mM stocks in DMSO and sonicated for 5-10 minutes in a water bath sonicator. Serial dilutions were prepared in DMSO, and then diluted in medium. The final concentration of DMSO used in the assay was 1%.
HEK-Blue hTLR9 reporter cells (InvivoGen) are HEK-293 cells stably expressing both the human TLR9 gene and a secreted embryonic alkaline phosphatase (SEAP) reporter construct downstream of NFκB promotor sites. HEK-Blue hTLR9 cells were cultured according to manufacturer's protocol using Dulbecco's Modified Eagle Medium (DMEM; Gibco) containing 1× GlutaMax (Gibco), 10% heat-inactivated Fetal Bovine Serum (Gibco), Pen-Strep (50 U/mL penicillin, 50 μg/mL streptomycin, Gibco), 100 μg/mL Normocin (InvivoGen), and the selective antibiotics, 10 μg/mL Blasticidin (InvivoGen), and 100 μg/mL Zeocin (InvivoGen). Quanti-Blue reagent (InvivoGen) for detection and quantification of secreted alkaline phosphatase was dissolved in 100 mL of endotoxin-free water, warmed to 37° C. for 30 minutes and then filtered using a 0.2 μm membrane.
On day 1, 50 μL of each test compound dilution in duplicates or a vehicle control was added to each well of a 96-well plate followed by addition of 150 μL of HEK-Blue hTLR9 cell suspension (1×10^5 cells/well) and incubated at 37° C./5% CO2 for 2 h. Next, 50 μL of an approximate 3×EC50 concentration of TLR9 agonist, ODN 2006, was added to the wells containing test compounds or the vehicle control. The plates were then incubated at 37° C./5% CO2 for 18 h. For each assay run, vehicle-treated HEK-Blue hTLR9 cells were treated with serial dilutions of agonist to determine EC50 values for the respective run.
On day 2, secreted alkaline phosphatase (SEAP) activity was detected in cell culture supernatants. In brief, 30 μL was collected from each well and transferred to a 96-well plate. Next, 200 μL of Quanti-Blue detection reagent was added to each well. Plates were incubated at 37° C. for 60 min. and SEAP activity was assessed by spectrophotometer OD reading at 655 nm. Table A and Table B show the activities of the compounds tested in HEK-Blue hTLR9 cells against ODN 2006. The activities of the compounds against ODN 2006 are presented as IC50 values which were defined as concentrations of the compounds where percent inhibition of the signal induced by agonist is equal to 50. Exact IC50 values were calculated based on 8-point dilutions for each compound. Approximate IC50 values (˜ or <) were calculated based on 4-point dilutions for each compound.

IC50 ([1]; Table A): 2.2 µM | IC50 ([2]; Table A): 0.9 µM | IC50 [3]: ~2 µM
SMILES: COc1cc(-c2cnn(-c3ccccc3)c2)cc(C=O)c1O [Compound A1, 2-hydroxy-3-methoxy-5-(1-phenyl-1H-pyrazol-4-yl)benzaldehyde]

IC50 ([1]; Table A): 85.5 µM | IC50 ([2]; Table A): > 100 µM | IC50 [3]: > 33 µM
SMILES: COc1cc(-c2cnn(Cc3ccccn3)c2)cc(C=O)c1O [Compound A8, 2-hydroxy-3-methoxy-5-(1-(pyridin-2-ylmethyl)-1H-pyrazol-4-yl)benzaldehyde]

IC50 ([1]; Table A): > 100 µM | IC50 ([2]; Table A): > 100 µM | IC50 [3]: > 33 µM
SMILES: Cc1cc(-c2cnn(-c3ccccc3)c2)cc(C#N)c1O [Compound A12, 2-hydroxy-3-methyl-5-(1-phenyl-1H-pyrazol-4-yl)benzonitrile]

IC50 ([1]; Table A): 45.7 µM | IC50 ([2]; Table A): 39.7 µM | IC50 [3]: > 33 µM
SMILES: Oc1cc(-c2cnn(-c3ccccc3)c2)cc(F)c1F [Compound A13, 2,3-difluoro-5-(1-phenyl-1H-pyrazol-4-yl)phenol]

IC50 ([1]; Table A): 42.2 µM | IC50 ([2]; Table A): 42.6 µM | IC50 [3]: > 33 µM
SMILES: Cc1cc(-c2cnn(-c3ccccc3)c2)cc(O)c1F [Compound A14, 2-fluoro-3-methyl-5-(1-phenyl-1H-pyrazol-4-yl)phenol]

IC50 ([1]; Table A): > 100 µM | IC50 ([2]; Table A): > 100 µM | IC50 [3]: > 33 µM
SMILES: Oc1c(F)cc(-c2cnn(-c3ccccc3)c2)cc1Cl [Compound A15, 2-chloro-6-fluoro-4-(1-phenyl-1H-pyrazol-4-yl)phenol]

IC50 ([1]; Table A): > 100 µM | IC50 ([2]; Table A): > 100 µM | IC50 [3]: > 33 µM
SMILES: COc1cc(-c2cnn(-c3ccccc3)c2)cc(O)c1F [Compound A16, 2-fluoro-3-methoxy-5-(1-phenyl-1H-pyrazol-4-yl)phenol]

IC50 ([1]; Table A): 0.9 µM | IC50 ([2]; Table A): 0.9 µM | IC50 [3]: > 10 µM
SMILES: O=Cc1cc(-c2cnn(-c3cccc(N4CCCC4)c3)c2)cc(F)c1O [Compound A22, 3-fluoro-2-hydroxy-5-(1-(3-(pyrrolidin-1-yl)phenyl)-1H-pyrazol-4-yl)benzaldehyde]

IC50 ([1]; Table A): 1.9 µM | IC50 ([2]; Table A): 1.2 µM | IC50 [3]: ~3 µM
SMILES: COc1cc(-c2ccn(-c3ccccc3)n2)cc(C=O)c1O [Compound A25, 2-hydroxy-3-methoxy-5-(1-phenyl-1H-pyrazol-3-yl)benzaldehyde]

IC50 ([1]; Table A): 2.9 µM | IC50 ([2]; Table A): 2.7 µM | IC50 [3]: ~3 µM
SMILES: O=Cc1cc(-c2ccn(-c3ccccc3)n2)cc(F)c1O [Compound A26, 3-fluoro-2-hydroxy-5-(1-phenyl-1H-pyrazol-3-yl)benzaldehyde]

More lines, now with the values behind:

SMILES: COc1cc(-c2cnn(CCN3CCOCC3)c2)cc(C=O)c1O [Compound A2, 2-hydroxy-3-methoxy-5-(1-(2-morpholinoethyl)-1H-pyrazol-4-yl)benzaldehyde]
IC50 ([1]; Table A): > 100 µM | IC50 ([2]; Table A): > 100 µM | IC50 [3]: > 33 µM

SMILES: COCCCn1cc(-c2cc(C=O)c(O)c(OC)c2)cn1 [Compound A7, 2-hydroxy-3-methoxy-5-(1-(3-methoxypropyl)-1H-pyrazol-4-yl)benzaldehyde]
IC50 ([1]; Table A): 36.8 µM | IC50 ([2]; Table A): 42.3 µM | IC50 [3]: > 33 µM

SMILES: O=Cc1cc(-c2cnn(-c3ccc(N4CCCC4)cc3)c2)cc(F)c1O [Compound A19, 3-fluoro-2-hydroxy-5-(1-(4-(pyrrolidin-1-yl)phenyl)-1H-pyrazol-4-yl)benzaldehyde]
IC50 ([1]; Table A): 0.5 µM | IC50 ([2]; Table A): 0.5 µM | IC50 [3]: < 1.2 µM

SMILES: O=Cc1cc(-c2ccn(-c3ccc(N4CCCC4)cc3)n2)cc(F)c1O [Compound A27, 3-fluoro-2-hydroxy-5-(1-(4-(pyrrolidin-1-yl)phenyl)-1H-pyrazol-3-yl)benzaldehyde]
IC50 ([1]; Table A): 0.9 µM | IC50 ([2]; Table A): 0.8 µM | IC50 [3]: < 1.2 µM

SMILES: CN1CCN(/N=C/c2cc(-c3ccn(-c4ccccc4)n3)cc(F)c2O)CC1 [Compound A33, (E)-2-fluoro-6-(((4-methylpiperazin-1-yl)imino)methyl)-4-(1-phenyl-1H-pyrazol-3-yl)phenol]
IC50 ([1]; Table A): 4 µM | IC50 ([2]; Table A): 3.6 µM | IC50 [3]: ~4 µM

SMILES: O=Cc1cc(-n2cc(-c3ccc(N4CCCC4)cc3)nn2)cc(F)c1O [Compound A42, 3-fluoro-2-hydroxy-5-(4-(4-(pyrrolidin-1-yl)phenyl)-1H-1,2,3-triazol-1-yl)benzaldehyde]
IC50 ([1]; Table A): 0.4 µM | IC50 ([2]; Table A): 0.3 µM | IC50 [3]: 0.1 µM

SMILES: O=Cc1cc(-c2cn(-c3ccc(N4CCCC4)cc3)nn2)cc(F)c1O [Compound A43, 3-fluoro-2-hydroxy-5-(1-(4-(pyrrolidin-1-yl)phenyl)-1H-1,2,3-triazol-4-yl)benzaldehyde]
IC50 ([1]; Table A): 1.1 µM | IC50 ([2]; Table A): 1.1 µM | IC50 [3]: < 1.2 µM

SMILES: O=Cc1cc(-n2cc(-c3cccc(N4CCCC4)c3)nn2)cc(F)c1O [Compound A44, 3-fluoro-2-hydroxy-5-(4-(3-(pyrrolidin-1-yl)phenyl)-1H-1,2,3-triazol-1-yl)benzaldehyde]
IC50 ([1]; Table A): 1 µM | IC50 ([2]; Table A): 0.7 µM | IC50 [3]: ~1.2 µM

SMILES: O=Cc1cc(-c2cn(-c3ccc(N4CCCC4)cc3)cn2)cc(F)c1O [Compound A47, 3-fluoro-2-hydroxy-5-(1-(4-(pyrrolidin-1-yl)phenyl)-1H-imidazol-4-yl)benzaldehyde]
IC50 ([1]; Table A): 2.3 µM | IC50 ([2]; Table A): 1.3 µM | IC50 [3]: < 1.2 µM

SMILES: O=Cc1cc(-c2cc(-c3ccc(N4CCCC4)cc3)cs2)cc(F)c1O [Compound A51, 3-fluoro-2-hydroxy-5-(4-(4-(pyrrolidin-1-yl)phenyl)thiophen-2-yl)benzaldehyde]
IC50 ([1]; Table A): 1.7 µM | IC50 ([2]; Table A): 0.7 µM | IC50 [3]: < 1.2 µM

SMILES: O=Cc1cc(-c2csc(-c3ccc(N4CCCC4)cc3)c2)cc(F)c1O [Compound A52, 3-fluoro-2-hydroxy-5-(5-(4-(pyrrolidin-1-yl)phenyl)thiophen-3-yl)benzaldehyde]
IC50 ([1]; Table A): 0.7 µM | IC50 ([2]; Table A): 0.2 µM | IC50 [3]: < 1.2 µM

SMILES: O=Cc1cc(C(=O)Nc2ccc(N3C[C@H]4CCC[C@H]4C3)nc2)cc(F)c1O [Compound B103, 3-fluoro-5-formyl-N-(6-((3aR,6aS)-hexahydrocyclopenta[c]pyrrol-2(1H)-yl)pyridin-3-yl)-4-hydroxybenzamide]
IC50 ([1]; Table B): 1.7 µM | IC50 ([2]; Table B): 1 µM
